One experiment concerns the target Carbonic anhydrase 9 (Homo sapiens, UniProt Q16790).
A further experiment concerns the target Carbonic anhydrase 12 (Homo sapiens, UniProt O43570).
The next experiment has as its target Carbonic anhydrase 1 (Homo sapiens, UniProt P00915). Description: Inhibition of recombinant human carbonic anhydrase 1 preincubated for 15 mins by stopped-flow CO2 hydrase Assay.

Consider ten compounds from ChEMBL document CHEMBL3351878, “Carbonic Anhydrase Inhibition with Benzenesulfonamides and Tetrafluorobenzenesulfonamides Obtained via Click Chemistry” (ACS Med Chem Lett, 2014).

Sequence of Carbonic anhydrase 1 (P00915 whole entry): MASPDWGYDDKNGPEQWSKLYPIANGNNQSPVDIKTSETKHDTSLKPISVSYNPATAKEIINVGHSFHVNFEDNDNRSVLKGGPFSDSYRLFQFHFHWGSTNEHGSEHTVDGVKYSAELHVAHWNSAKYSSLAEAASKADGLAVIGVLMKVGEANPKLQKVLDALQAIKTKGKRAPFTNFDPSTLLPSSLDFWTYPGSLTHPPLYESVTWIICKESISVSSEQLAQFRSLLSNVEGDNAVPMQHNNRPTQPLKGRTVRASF
Sequence of Carbonic anhydrase 12 (O43570 whole entry): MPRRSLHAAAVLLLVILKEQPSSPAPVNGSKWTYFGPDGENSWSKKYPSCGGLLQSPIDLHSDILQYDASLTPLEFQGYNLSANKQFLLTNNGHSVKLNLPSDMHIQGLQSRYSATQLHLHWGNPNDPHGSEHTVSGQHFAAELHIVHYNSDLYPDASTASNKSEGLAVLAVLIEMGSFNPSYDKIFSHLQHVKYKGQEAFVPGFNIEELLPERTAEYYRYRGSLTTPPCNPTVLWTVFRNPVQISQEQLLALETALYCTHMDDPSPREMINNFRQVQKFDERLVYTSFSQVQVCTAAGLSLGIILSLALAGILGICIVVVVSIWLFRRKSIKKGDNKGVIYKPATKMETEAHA

Usually Ki stands for a measure of affinity in units of concentration, obtained from inhibition or displacement. The compound `CCCCCc1ccc(-c2cn(-c3c(F)c(F)c(S(N)(=O)=O)c(F)c3F)nn2)cc1` yielded a Ki at Carbonic anhydrase 9 of 38.9 nM.

For the compound `Cc1ccc(-c2cn(-c3ccc(S(N)(=O)=O)cc3)nn2)cc1`, the Ki on Carbonic anhydrase 12 turned out to be 3.6 nM; at Carbonic anhydrase 1, 368 nM.

As for `NS(=O)(=O)c1ccc(-n2cc(-c3ccccc3)nn2)cc1`, the Ki is 6 nM at Carbonic anhydrase 12, 25.9 nM at Carbonic anhydrase 9 and 392 nM on Carbonic anhydrase 1.

In the case of `CC(C)(C)OC(=O)NCc1cn(-c2ccc(S(N)(=O)=O)cc2)nn1`, affinity at Carbonic anhydrase 9 was put at a Ki of 10.5 nM.

On to `NCc1cn(-c2ccc(S(N)(=O)=O)cc2)nn1`, for which the Ki on Carbonic anhydrase 9 was 12.1 nM.

`CCCCCc1ccc(-c2cn(-c3ccc(S(N)(=O)=O)cc3)nn2)cc1` registered a Ki on Carbonic anhydrase 9 of 5 nM.

`NS(=O)(=O)c1ccc(-n2cc(CCBr)nn2)cc1` came in with a Ki at Carbonic anhydrase 9 of 6.9 nM.

On Carbonic anhydrase 9, `NS(=O)(=O)c1ccc(-n2cc(CCCCl)nn2)cc1` returned a Ki of 6.2 nM.

On Carbonic anhydrase 9, `NS(=O)(=O)c1ccc(-n2cc(CCCCCl)nn2)cc1` returned a Ki of 5.4 nM.

As to `NS(=O)(=O)c1c(F)c(F)c(-n2cc(CCCCCl)nn2)c(F)c1F`, the Ki at Carbonic anhydrase 9 was determined as 4.5 nM.
